The source of these data is PubChem BioAssay (NCI).

Several values for one entry are separate records, joined by “and”; a condition that tells them apart may be missing. Equal values may be shown once.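 96-well plates; 48 h exposure; 5 concentrations. Endpoints by linear interpolation between flanking doses. Not reached: highest tested concentration assigned. Here, GI50 denotes the concentration required for 50% inhibition of growth. At the TGI there is no net growth.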

Among the test systems are SF-295 CNS; CAKI-1 renal; OVCAR-5 ovarian; IGROV1 ovarian; UACC-62 melanoma; TK-10 renal; U251 CNS; NCI-H522 lung; SK-OV-3 ovarian; A549 NSCLC.
What all share (test): inhibition of tumour cell growth, NCI panel, 48 h

As for `COc1ccc2c(c1)C(=O)c1c-2n(CCCI)c(=O)c2cc([N+](=O)[O-])ccc12`, the GI50 was 0.122 µM and 0.1 µM in the assay with SF-295 CNS; 0.472 µM and 0.309 µM in the assay with CAKI-1 renal; 0.109 µM and 0.149 µM in the assay on UACC-62 melanoma; 33.1 µM and 19.4 µM in the assay on TK-10 renal; 0.138 µM and 0.047 µM with U251 CNS; 0.23 µM and 0.48 µM in the assay with SK-OV-3 ovarian. In the assay on A549 NSCLC, the GI50 was 0.316 µM and 0.402 µM. Also, the TGI with SF-295 CNS was 50 µM and 66.8 µM; in the assay on CAKI-1 renal, 48.6 µM and 6.86 µM; in the assay with OVCAR-5 ovarian, 7.75 µM and 46.3 µM; in the assay with IGROV1 ovarian, 50 µM and 72.3 µM; with UACC-62 melanoma, 0.851 µM and 1.35 µM; in the assay with TK-10 renal, 50 µM and > 100 µM. The TGI was 5.64 µM and 1.27 µM in the assay on U251 CNS; 50 µM and 98.8 µM in the assay with NCI-H522 lung; 50 µM and 40.9 µM with A549 NSCLC.
On to `Cc1cccc(NC(=O)c2cccc([N+](=O)[O-])c2O)c1C`, for which the TGI was 80.1 µM in the assay on SF-295 CNS; greater than 100 µM in the assay on CAKI-1 renal; greater than 89.2 µM with OVCAR-5 ovarian; greater than 100 µM in the assay with IGROV1 ovarian; greater than 100 µM in the assay on UACC-62 melanoma; greater than 100 µM in the assay with TK-10 renal. For the same molecule, the TGI with U251 CNS was greater than 100 µM; with NCI-H522 lung, 58 µM; with SK-OV-3 ovarian it was greater than 81.9 µM; in the assay on A549 NSCLC, greater than 100 µM.
For the molecule `CSc1nc(SC)c2c(CO)c(Br)n(Cc3ccccc3)c2n1`, the TGI is 40.9 µM in the assay with SF-295 CNS; 23.6 µM in the assay on CAKI-1 renal; greater than 100 µM with OVCAR-5 ovarian; 39.3 µM with IGROV1 ovarian; 41.9 µM in the assay on UACC-62 melanoma; 79.4 µM in the assay with TK-10 renal. For the same molecule, the TGI is 26.3 µM in the assay on U251 CNS, 68.8 µM in the assay on NCI-H522 lung, 37.6 µM in the assay with SK-OV-3 ovarian and greater than 100 µM with A549 NSCLC.
For the molecule `COc1cccc(/C=N/C(/N=C/c2cccc(OC)c2O)c2cccc(OC)c2O)c1O`, the TGI in the assay on SF-295 CNS was 80 µM; with CAKI-1 renal it was 48.1 µM; in the assay with OVCAR-5 ovarian it was 73.8 µM; with IGROV1 ovarian, 62.8 µM; in the assay on UACC-62 melanoma, 59.8 µM; with TK-10 renal, 55.6 µM. Further, the TGI with U251 CNS stood at 80.1 µM; with NCI-H522 lung it was 49.2 µM; in the assay on SK-OV-3 ovarian, 78.1 µM; with A549 NSCLC, 78.8 µM.
With `CC(=O)OCc1cc2ccccc2nc1C(Br)(Br)Br`, the TGI was 32.9 µM in the assay on SF-295 CNS; 29.5 µM in the assay with CAKI-1 renal; 30.7 µM with OVCAR-5 ovarian; 25.7 µM with IGROV1 ovarian; 32.2 µM with UACC-62 melanoma; 36.7 µM in the assay with TK-10 renal. Further, the TGI came out at 28.1 µM in the assay on U251 CNS, 34 µM in the assay on NCI-H522 lung, 86.6 µM with SK-OV-3 ovarian and 31.2 µM in the assay with A549 NSCLC.
On to `CC(C(O)c1ccccc1)C(O)(C(F)(F)F)C(F)(F)F` (stereo unspecified), for which the TGI in the assay on SF-295 CNS, in the assay with CAKI-1 renal, with OVCAR-5 ovarian, in the assay on IGROV1 ovarian, in the assay with UACC-62 melanoma and with TK-10 renal was greater than 100 µM each time. For the same molecule, the TGI in the assay on U251 CNS, with NCI-H522 lung, with SK-OV-3 ovarian and with A549 NSCLC was greater than 100 µM each time.
Take `Cn1cc(-c2ccc(-c3ccc(C4=NC5(CC5)C(=O)N4C[C@@H]4CCN(C(=O)C5CC5)C4)cc3)cc2)cn1`: the GI50 with SF-295 CNS is 10.8 µM; in the assay with CAKI-1 renal it was 12.6 µM; in the assay with OVCAR-5 ovarian it was 38.6 µM; in the assay on IGROV1 ovarian, 28.7 µM; with UACC-62 melanoma, 10.2 µM; in the assay on TK-10 renal it was 24 µM. For the same molecule, the GI50 in the assay with U251 CNS was 10.5 µM; in the assay on NCI-H522 lung, 12.3 µM; with SK-OV-3 ovarian, 29.9 µM; with A549 NSCLC, 12.5 µM. Also, the TGI in the assay with SF-295 CNS was 29.2 µM; with CAKI-1 renal, greater than 100 µM; with OVCAR-5 ovarian, greater than 100 µM; with IGROV1 ovarian, greater than 100 µM; in the assay with UACC-62 melanoma, 34.5 µM; with TK-10 renal, 81.2 µM. Further, the TGI was 29 µM in the assay on U251 CNS, 40.6 µM in the assay with NCI-H522 lung, greater than 100 µM in the assay with SK-OV-3 ovarian and 39.3 µM in the assay with A549 NSCLC.
Turning to `COc1cc(Nc2ncc(F)c(Nc3ccc4c(n3)N(COP(=O)(O)O)C(=O)C(C)(C)O4)n2)cc(OC)c1OC`, the GI50 is 1.39 µM and 1.17 µM with SF-295 CNS; 0.456 µM and 0.645 µM in the assay on CAKI-1 renal; 1.7 µM and 1.38 µM in the assay on OVCAR-5 ovarian; 0.457 µM and 0.342 µM with IGROV1 ovarian; 2.1 µM and 1.64 µM in the assay on UACC-62 melanoma; 0.774 µM and 0.768 µM in the assay with TK-10 renal. In addition, the GI50 in the assay on U251 CNS is 7.55 µM and 2 µM; in the assay with NCI-H522 lung, 1.53 µM and 1.24 µM; in the assay with SK-OV-3 ovarian, 0.972 µM and 0.707 µM; in the assay on A549 NSCLC it was 2.27 µM and 2.11 µM. In addition, the TGI with SF-295 CNS was 7.55 µM and 8.7 µM; with CAKI-1 renal, 1.9 µM and > 10 µM; in the assay with OVCAR-5 ovarian, 9.62 µM and > 10 µM; in the assay on IGROV1 ovarian, 2.22 µM and 2.11 µM; in the assay with UACC-62 melanoma, 12 µM and > 10 µM; with TK-10 renal it was 3.06 µM. Besides, the TGI is greater than 100 µM in the assay with U251 CNS; 7.02 µM and 7.1 µM with NCI-H522 lung; 3.46 µM and 2.98 µM with SK-OV-3 ovarian; greater than 26.8 µM with A549 NSCLC.
On to `COc1cc(C2CC(c3ccc(Nc4ccnc5cc(Cl)ccc45)cc3)=NN2c2ccc(Cl)cc2)cc(OC)c1OC` (stereo unspecified), for which the GI50 in the assay with SF-295 CNS is 2.02 µM; with CAKI-1 renal, 2.12 µM; in the assay with OVCAR-5 ovarian, 6.08 µM; in the assay on IGROV1 ovarian, 4.81 µM; in the assay on UACC-62 melanoma, 1.17 µM; with TK-10 renal it was 5.05 µM. The GI50 with U251 CNS is 2.91 µM; in the assay with NCI-H522 lung, 1.85 µM; with SK-OV-3 ovarian it was 3.26 µM; with A549 NSCLC it was 4.15 µM. Moreover, the TGI with SF-295 CNS was 8.32 µM; in the assay with CAKI-1 renal, greater than 100 µM; with OVCAR-5 ovarian it was greater than 100 µM; in the assay on IGROV1 ovarian it was greater than 100 µM; in the assay on UACC-62 melanoma, 5.54 µM; with TK-10 renal, greater than 100 µM. The TGI in the assay on U251 CNS is greater than 100 µM; in the assay with NCI-H522 lung, 50.2 µM; with SK-OV-3 ovarian, greater than 100 µM; in the assay with A549 NSCLC it was greater than 100 µM.
`C#CCOc1cccc(Nc2ncnc3cc(NC(=O)CCl)ccc23)c1`: the GI50 in the assay with SF-295 CNS was 3.52 µM; in the assay with CAKI-1 renal, 3.51 µM; in the assay on OVCAR-5 ovarian it was 10.3 µM; with IGROV1 ovarian it was 2.78 µM; in the assay on UACC-62 melanoma it was 4.24 µM; in the assay on TK-10 renal, 5.22 µM. Besides, the GI50 with U251 CNS is 2.13 µM; in the assay with NCI-H522 lung, 1.46 µM; with SK-OV-3 ovarian it was 4.36 µM; with A549 NSCLC, 5.03 µM. Besides, the TGI in the assay on SF-295 CNS was 15.2 µM; in the assay with CAKI-1 renal, 15 µM; with OVCAR-5 ovarian, 23 µM; with IGROV1 ovarian it was 11.9 µM; with UACC-62 melanoma it was 16.9 µM; in the assay with TK-10 renal it was 19.3 µM. The TGI with U251 CNS turned out to be 4.78 µM; in the assay on NCI-H522 lung, 3.34 µM; with SK-OV-3 ovarian, 17.2 µM; in the assay with A549 NSCLC, 17.9 µM.
